In experiment [1] the test system is prostaglandin E2 (PGE2) production by human vulvar fibroblasts. Kind of experiment: In vitro LPV model: PGE2 production by patient vestibular or vulvar fibroblasts. In kind it is cell-based. To be noted: for PGE2 levels: post-treatment regimen: IL-1β 30 min first, then 5 nM for 18 hours plus booster dose for 6 hr, already activated cells, FIG. 4C; for PGE2 production: pre-treatment regimen, 5 nM, activated with IL-1β (10 pg/ml) 48 hr, vestibular and external vulvar fibroblasts, FIG. 4A. How it is done: (§1) FIGS. 4A, 4B, 4C, and 4D are a set of diagrams showing that PGE2 and IL-6 production is reduced by compounds of Formula (I). Patient vestibular or vulvar fibroblasts were pre-treated for 10 hours with Maresin land epi-Maresin 1 at a 5 nM concentration, then activated with IL-1β (Panel A; 10 pg/ml) or bradykinin (Panel B; 100 nM) for 48 hr. Culture media were collected and analyzed for PGE2 (Panel A) or IL-6 (Panel B) content. Patient fibroblasts were also activated first with IL-1β for 30 min then treated with 5 nM Maresin 1 for 18 hours, followed by a booster dose for 6 hr. Culture media were collected and analyzed for PGE2 (Panel C) or IL-6 (Panel D) content. Mean+/−SEM of n=3, ANOVA *p<0.05 vs. activation only (no compounds of Formula (I) (F (I))).
(§2) In this example, a fibroblast-based in vitro LPV model was established. Briefly, fibroblast strains were obtained from two regions (FIG. 1) of the lower genital tract of localized provoked vulvodynia (LPV) cases and pain-free controls in the manner described in Falsetta et al. Am J Obstet Gynecol 2015, vol. 213, pp. 38 e1-12 and Foster et al., Pain 2015, vol. 156, pp. 386-96.
(§3) Over 30 paired fibroblast strains obtained from LPV-afflicted cases (fulfilling Friedrich's Criteria)^25 and age/race-matched (critical variables influencing LPV),^26, 27 pain-free controls were obtained. All subjects who contributed to the library were premenopausal, denied oral corticosteroids, non-steroidal, immunomodulatory, or anti-inflammatory medication use, and reported an absence of systemic/cutaneous inflammatory conditions at the time of sample collection. Mechanical pain thresholds were determined (via a method of limits) (0.5-5 N) using a Wagner algometer. Fibroblast identity was confirmed by microscopy and fibroblast markers (vimentin, collagen); only low passage (˜4) cells are used.
(§4) In this example, assays were carried out to investigate the ability of compounds of Formula (I) to reduce pro-inflammatory and pro-pain mediator production from primary human cells in the in vitro LPV model described in Example 1.
(§5) The inventors used one of two treatment regimens proven effective in vulvar fibroblasts and other cells at low/nanomolar concentrations (1-100 nM): 1) overnight pre-treatment, followed by another treatment 30 min prior to stimulation with pro-inflammatory stimuli for 48 hr with a third dose of a compound of Formula (I) at 24 hr post-challenge, or 2) post-treatment a compound of Formula (I) after a 30 min pre-treatment with inflammatory stimuli, followed by a booster dose 18 hr later. Both treatment regimens are of interest, as compounds of Formula (I) are active throughout the inflammatory process.^5-7 Even the compound of Formula (I) administered after LPV onset are likely to prevent the worsening or spread of LPV pain.

In a further experiment the test system is PGE2 in vaginal lavage. Kind of experiment: Mouse model of LPV: PGE2 content in vaginal lavage. In kind it is in vivo, C57BL/6 mouse. To be noted: C57BL/6 mice with established Zymosan-induced allodynia, topical daily 1 μg/mouse/day for 4 weeks, FIG. 8. An excerpt:
FIG. 8 is a diagram showing that PGE2 in vaginal lavage is associated with pain threshold. After induction of allodynia for up to 6 weeks (indicated by reduced pain threshold, red line), Maresin 1 was applied to C57BL/6 mouse vulvas to reduce pain and increase pain threshold. PGE2 content in vaginal lavage samples (blue line) […], indicating pain-associated inflammation waning with treatment. SEM shown, n=8.
Using this approach, inventors confirmed that one could induce vulvar allodynia, measure pain responses via mechanical threshold determination, and assess treatment responses. However, inventors implemented several modifications to improve the robustness of the model including the following: 1) use a genetically tractable inbred strain; 2) validation of the use of an electronic von Frey (EvF) system; 3) assessment of the impact of behavioral conditioning on pain response; 4) weekly collection of vulvovaginal lavages for pro-inflammatory mediator quantification; and 5) testing the ability of a selected compound of Formula (I) (e.g., Maresin 1) to modulate pain and inflammation in our new model. […]

Experiment [2] deals with PGE2 production from mouse vulvar tissue. Kind of experiment: Mouse vulvar explants (4 mm punch biopsy) stimulated with IL-1β: PGE2 production. To be noted: FIG. 5. It counts as cell-based. How it is done:
FIG. 5 is a diagram showing that compounds of Formula (I) (F (I)) inhibit PGE2 production from mouse vulvar tissue. Mouse vulvar tissue (4 mm punch biopsies) was collected and bisected then pre-treated in culture medium with either Maresin 1 at indicated concentrations for 18 hours, followed by an additional 18 hours stimulation with IL-1β (10 pg/ml). Culture medium was collected and analyzed for PGE2 content. Mean+/−SEM; n=3 replicate cultures. ANOVA * p<0.05 vs. vehicle.
Inventors first confirmed that mouse vulvar tissues responded to compounds of Formula (I) treatment in vitro by culturing mouse vulvar explants (4 mm punch biopsy). The explants were stimulated with IL-1β, and then assays were carried to assess the ability of Maresin 1 to reduce PGE2 production under the established pre-treatment regimen.
It was also determined that these mice expressed several SPM receptors (e.g., ALX, GPR18). Therefore, inventors proceeded with testing responses to compounds of Formula (I) in the mouse model.

The subject of experiment [3] is interleukin-6 (IL-6) production by human vulvar fibroblasts. Kind of experiment: In vitro LPV model: IL-6 production by patient vestibular or vulvar fibroblasts. It counts as cell-based. To be noted: for IL-6 levels: post-treatment regimen: IL-1β 30 min first, then 5 nM for 18 hours plus booster dose for 6 hr, already activated cells, FIG. 4D; for IL-6 production: pre-treatment regimen, 5 nM, activated with bradykinin (100 nM) 48 hr, vestibular and external vulvar fibroblasts, FIG. 4B. The method, then: as §1, §2, §3, §4, §5

The test system of experiment [4] is vulvar allodynia (pain threshold). Kind of experiment: Mouse model of LPV: Zymosan-induced vulvar allodynia, pain threshold by electronic von Frey. Particulars: C57BL/6 mice with established Zymosan-induced allodynia, topical daily 1 μg/mouse/day for 4 weeks. It counts as in vivo, C57BL/6 mouse. An excerpt: FIGS. 6A, 6B and 6C are a set of photographs and diagrams showing pain testing for in vivo mouse vulvodynia model. Panel A: After Zymosan injection, inflammation and redness become apparent. Arrow indicates injection site. Panel B: Image showing how an electronic von Frey hair (Mousemet) is used to apply force to the mouse vulva. Panel C: Schematic of in vivo mouse model to establish then resolve vulvar allodynia. FIG. 7 is a diagram showing representative pain profile for a C57BL/6 mouse. […] In the mouse model, Zymosan (a pro-inflammatory yeast cell wall preparation) was used to induce sustained vulvar allodynia, measured by pain threshold testing. Inventors initially used a manual von Frey system (MvF)^24, but later switched to an electronic system as detailed herein. […] However, inventors implemented several modifications to improve the robustness of the model including the following: 1) use a genetically tractable inbred strain; 2) validation of the use of an electronic von Frey (EvF) system; 3) assessment of the impact of behavioral conditioning on pain response; 4) weekly collection of vulvovaginal lavages for pro-inflammatory mediator quantification; and 5) testing the ability of a selected compound of Formula (I) (e.g., Maresin 1) to modulate pain and inflammation in our new model. […]

Two compounds from patent US11400057B2, “Treatment of vulvar pain” (University of Rochester, priority 2018, dated 2022) can be followed below.

“Also recorded” adds a separate entry of the source.

For `CC/C=C\C/C=C\C[C@H](O)\C=C/C=C/C=C/[C@H](O)C/C=C\CCC(=O)O` [Maresin 1, 7R,14S-dihydroxy-docosa-4Z,8E,10E,12Z,16Z,19Z-hexaenoic acid], the PGE2 levels entry in experiment [1] was “significantly reduced”; in experiment [1] (listed as Maresin-1), “highly effective in reducing”. The PGE2 production result in experiment [1] was “significantly reduced”. The “PGE2 levels in vulvovaginal lavage” value in the experiment with PGE2 in vaginal lavage was “suppressed and maintained at levels below baseline”; in the experiment on PGE2 in vaginal lavage (listed as Maresin-1), “suppressing PGE2 levels”. Also, the “PGE2 responses following IL-1β treatment” value in experiment [2] (pre-treated 18 hours, then 18 hours IL-1β (10 pg/ml)) was “significantly suppressed”. Besides, the “lowest dose with significant suppression of PGE2 response” value in experiment [2] (pre-treatment regimen, IL-1β (10 pg/ml)) was found to be 1 nM. Moreover, the figures for the IL-6 levels entry in experiment [3] and in experiment [3] (listed as Maresin-1) were “significantly reduced” and “highly effective in reducing”, respectively. Also, the IL-6 production result in experiment [3] is “significantly reduced”. The pain threshold entry in experiment [4] (FIG. 7, 8) is “complete restoration to the pre-induction thresholds; also recorded: values returned to baseline”; in experiment [4] (FIG. 7, 8, listed as Maresin-1), “increased pain thresholds”.
Turning to `CC/C=C\C/C=C\C[C@H](O)\C=C/C=C/C=C/[C@@H](O)C/C=C\CCC(=O)O` [epi-Maresin 1, 7S,14S-dihydroxy-docosa-4Z,8E,10E,12Z,16Z,19Z-hexaenoic acid], in experiment [1], the PGE2 production result is given as “significantly reduced”. Also, in experiment [3], the IL-6 production result is “significantly reduced”.
